We go through 27 compounds from US9850225B2, “Compounds useful as immunomodulators” (BRISTOL-MYERS SQUIBB COMPANY, priority 2014, dated 2017).

The target of the experiment is PD-1/PD-L1 interaction (PD-1-Ig / PD-L1-His) (Homo sapiens (Human), UniProt Q9NZQ7). Description: PD-1/PD-L1 Homogenous Time-Resolved Fluorescence (HTRF) binding assay. Particulars: PD-1/PD-L1 HTRF binding assay; value given as range class; read-out: Range or IC50. Put shortly:
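Human PD-L1-His (10 nM final) was pre-incubated with inhibitor for 15 min, then PD-1-Ig (20 nM final) was added for a further 15 min in dPBS with 0.1% BSA and 0.05% Tween-20. Binding was detected by HTRF using Eu-cryptate anti-Ig (1 nM) and APC anti-His (20 nM).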
A general note: Time-resolved FRET reads energy transfer from a long-lived donor to a nearby acceptor.

Chain of PD-1/PD-L1 interaction (PD-1-Ig / PD-L1-His) (Q9NZQ7 other isoform, or with tags, fused parts or gaps): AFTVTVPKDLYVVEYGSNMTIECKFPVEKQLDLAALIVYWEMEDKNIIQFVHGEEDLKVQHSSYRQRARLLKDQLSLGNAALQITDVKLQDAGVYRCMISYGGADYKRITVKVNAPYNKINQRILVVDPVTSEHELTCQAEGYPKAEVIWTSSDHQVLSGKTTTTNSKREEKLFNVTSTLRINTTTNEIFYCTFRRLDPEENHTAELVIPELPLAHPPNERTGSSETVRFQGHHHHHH

As for `COc1cc(COc2cc(OCc3cccc(-c4ccc5c(c4)OCCO5)c3C)c(Cl)cc2CN2CCCC[C@H]2C(=O)O)ccn1` [Example 3017, (S)-1-(5-chloro-4-((3-(2,3-dihydrobenzo[b][1,4]dioxin-6-yl)-2-methylbenzyl)oxy)-2-((2-methoxypyridin-4-yl)methoxy)benzyl)piperidine-2-carboxylic acid], the IC50 was in the range of 10 to 100 nM. For `CC(=O)NCCNCc1ccc(OCc2cccc(-c3ccccc3)c2C)cc1OCc1ccc(C#N)cc1` [Example 1029, N-(2-((2-((4-cyanobenzyl)oxy)-4-((2-methyl-[1,1′-biphenyl]-3-yl)methoxy)benzyl)amino)ethyl)acetamide], the IC50 lay within 100 to 20000 nM. As for `CC(=O)NCCNCc1ccc(OCc2cccc(-c3ccccc3)c2C)cc1OCc1ccc(OC(F)F)cc1` [Example 1088, N-(2-((2-((4-(difluoromethoxy)benzyl)oxy)-4-((2-methyl-[1,1′-biphenyl]-3-yl)methoxy)benzyl)amino)ethyl)acetamide], the figure is 100 to 20000 nM; as for `CC(=O)NCCNCc1ccc(OCc2cccc(-c3ccccc3)c2C)cc1OCc1ccc(F)c(F)c1` [Example 1059, N-(2-((2-((3,4-difluorobenzyl)oxy)-4-((2-methyl-[1,1′-biphenyl]-3-yl)methoxy)benzyl)amino)ethyl)acetamide], 100 to 20000 nM. The value for `Cc1c(COc2cc(OCc3cncc(C#N)c3)c(CN3CCCC[C@H]3C(=O)NS(=O)(=O)N(C)C)cc2Cl)cccc1-c1ccc2c(c1)OCCO2` [Example 1257, (S)-1-(5-chloro-2-((5-cyanopyridin-3-yl)methoxy)-4-((3-(2,3-dihydrobenzo[b][1,4]dioxin-6-yl)-2-methylbenzyl)oxy)benzyl)-N—(N,N-dimethylsulfamoyl)piperidine-2-carboxamide] was 10 to 100 nM; that for `CCc1cc(CNCCNC(C)=O)c(OCc2cccc(C#N)c2)cc1OCc1cccc(-c2ccc3c(c2)OCCO3)c1C` [Example 1289, N-(2-(2-(3-cyanobenzyloxy)-4-(3-(2,3-dihydrobenzo[b][1,4]dioxin-6-yl)-2-methylbenzyloxy)-5-ethylbenzylamino)ethyl)acetamide] was 0.6 to 10 nM. As for `Cc1c(COc2cc(OCc3cccc(C#N)c3)c(CNC(Cc3c[nH]cn3)C(=O)O)cc2Cl)cccc1-c1ccc2c(c1)OCCO2` (stereo not drawn) [Example 1164, 2-((5-chloro-2-((3-cyanobenzyl)oxy)-4-((3-(2,3-dihydrobenzo[b][1,4]dioxin-6-yl)-2-methylbenzyl)oxy)benzyl)amino)-3-(1H-imidazol-4-yl)propanoic acid], the figure is 0.6 to 10 nM; as for `CC(=O)NCCNCc1ccc(OCc2cccc(-c3ccccc3)c2C)cc1OCc1cc(C)cc(F)c1` [Example 1113, N-(2-((2-((3-fluoro-5-methylbenzyl)oxy)-4-((2-methyl-[1,1′-biphenyl]-3-yl)methoxy)benzyl)amino)ethyl)acetamide], 100 to 20000 nM; as for `COc1cc(OCc2cccc(-c3ccccc3)c2C)cc(OCc2cccc(C#N)c2)c1CN[C@H](C(=O)O)[C@H](C)O` [Example 1136, (2S,3S)-2-((2-((3-cyanobenzyl)oxy)-6-methoxy-4-((2-methyl-[1,1′-biphenyl]-3-yl)methoxy)benzyl)amino)-3-hydroxybutanoic acid], 0.6 to 10 nM.

For `Cc1c(COc2ccc(CN[C@@H](C(=O)O)[C@H](C)O)c(OCc3cccc(C#N)c3)c2)cccc1-c1ccccc1` [Example 1015, (2R,3S)-2-((2-((3-cyanobenzyl)oxy)-4-((2-methyl-[1,1′-biphenyl]-3-yl)methoxy)benzyl)amino)-3-hydroxybutanoic acid], the IC50 fell in the range of 0.6 to 10 nM. Take `CC(=O)NCCNCc1ccc(OCc2cccc(-c3ccccc3)c2C)cc1OCc1ccccc1OC(F)(F)F` [Example 1087, N-(2-((4-((2-methyl-[1,1′-biphenyl]-3-yl)methoxy)-2-((2-(trifluoromethoxy)benzyl)oxy)benzyl)amino)ethyl)acetamide]: the IC50 lay in the range of 100 to 20000 nM. Turning to `Cc1c(COc2cc(OCc3cccc(C#N)c3)c(CNC(C(=O)O)c3c[nH]c4ccccc34)cc2Cl)cccc1-c1ccc2c(c1)OCCO2` (stereo not drawn) [Example 1211, 2-((5-chloro-2-((3-cyanobenzyl)oxy)-4-((3-(2,3-dihydrobenzo[b][1,4]dioxin-6-yl)-2-methylbenzyl)oxy)benzyl)amino)-2-(1H-indol-3-yl)acetic acid], the IC50 fell in the range of 10 to 100 nM. The value for `Cc1c(COc2cc(OCc3cccc(C#N)c3)c(CN3CCCC[C@H]3C(=O)O)cc2Cl)cccc1-c1ccc2c(c1)OCCO2` [Example 1230, (S)-1-(5-chloro-2-((3-cyanobenzyl)oxy)-4-((3-(2,3-dihydrobenzo[b][1,4]dioxin-6-yl)-2-methylbenzyl)oxy)benzyl)piperidine-2-carboxylic acid] was 0.6 to 10 nM.

For `Cc1c(COc2ccc(CNC(CO)C(=O)O)c(OCc3cccc(C#N)c3)c2)cccc1-c1ccccc1` (stereo not drawn) [Example 1017, 2-((2-((3-cyanobenzyl)oxy)-4-((2-methyl-[1,1′-biphenyl]-3-yl)methoxy)benzyl)amino)-3-hydroxypropanoic acid], the IC50 lay within 0.6 to 10 nM.

With `Cc1c(COc2cc(OCc3cccc(C#N)c3)c(CN[C@@H](CC(=O)O)C(=O)O)cc2Cl)cccc1-c1ccc2c(c1)OCCO2` [Example 1158, (S)-2-((5-chloro-2-((3-cyanobenzyl)oxy)-4-((3-(2,3-dihydrobenzo[b][1,4]dioxin-6-yl)-2-methylbenzyl)oxy)benzyl)amino)succinic acid], the IC50 fell in the range of 0.6 to 10 nM. The value for `Cc1c(COc2cc(OCc3cccc(C#N)c3)c(CN[C@@](C)(CO)C(=O)O)cc2Cl)cccc1-c1ccc2c(c1)OCCO2` [Example 1245, (S)-2-((5-chloro-2-((3-cyanobenzyl)oxy)-4-((3-(2,3-dihydrobenzo[b][1,4]dioxin-6-yl)-2-methylbenzyl)oxy)benzyl)amino)-3-hydroxy-2-methylpropanoic acid] was 0.6 to 10 nM; that for `CC(=O)NCCNCc1ccc(OCc2cccc(-c3ccccc3)c2C)cc1OCCO` [Example 1030, N-(2-((2-(2-hydroxyethoxy)-4-((2-methyl-[1,1′-biphenyl]-3-yl)methoxy)benzyl)amino)ethyl)acetamide] was 100 to 20000 nM. As for `Cc1c(COc2cc(OCc3cncc(C#N)c3)c(CN[C@@H](CC(N)=O)C(=O)O)cc2Cl)cccc1-c1ccc2c(c1)OCCO2` [Example 3022, (S)-4-amino-2-((5-chloro-2-((5-cyanopyridin-3-yl)methoxy)-4-((3-(2,3-dihydrobenzo[b][1,4]dioxin-6-yl)-2-methylbenzyl)oxy)benzyl)amino)-4-oxobutanoic acid], the figure is 0.6 to 10 nM; as for `Cc1c(COc2ccc(CN3CCCC[C@H]3C(=O)O)c(OCc3cccc(C#N)c3)c2Cl)cccc1-c1ccccc1` [Example 1233, (S)-1-(3-chloro-2-(3-cyanobenzyloxy)-4-((2-methylbiphenyl-3-yl)methoxy)benzyl)piperidine-2-carboxylic acid], 100 to 20000 nM. The value for `Cc1c(COc2cc(OCc3cccc(C#N)c3)c(CNC[C@@H](O)CC(=O)O)cc2Cl)cccc1-c1ccc2c(c1)OCCO2` [Example 1246, (S)-4-((5-chloro-2-((3-cyanobenzyl)oxy)-4-((3-(2,3-dihydrobenzo[b][1,4]dioxin-6-yl)-2-methylbenzyl)oxy)benzyl)amino)-3-hydroxybutanoic acid] was 0.6 to 10 nM. Regarding `Cc1c(COc2cc(OCc3cccc(C#N)c3)c(CNC(C(=O)O)C(F)(F)F)cc2Cl)cccc1-c1ccc2c(c1)OCCO2` (stereo not drawn) [Example 1162, 2-((5-chloro-2-((3-cyanobenzyl)oxy)-4-((3-(2,3-dihydrobenzo[b][1,4]dioxin-6-yl)-2-methylbenzyl)oxy)benzyl)amino)-3,3,3-trifluoropropanoic acid], the IC50 was 100 to 20000 nM.

For the compound `Cc1c(COc2ccc(CN[C@@](C)(CO)C(=O)O)c(OCc3cccc(C#N)c3)c2)cccc1-c1ccc2c(c1)OCCO2` [Example 1128, (S)-2-((2-((3-cyanobenzyl)oxy)-4-((3-(2,3-dihydrobenzo[b][1,4]dioxin-6-yl)-2-methylbenzyl)oxy)benzyl)amino)-3-hydroxy-2-methylpropanoic acid], the IC50 was 0.6 to 10 nM. The value for `CC(=O)NCCNCc1ccc(OCc2cccc(-c3ccccc3)c2C)cc1OCc1ccc(F)c(C#N)c1` [Example 1114, N-(2-((2-((3-cyano-4-fluorobenzyl)oxy)-4-((2-methyl-[1,1′-biphenyl]-3-yl)methoxy)benzyl)amino)ethyl)acetamide] was 10 to 100 nM.

For `Cc1c(COc2cc(OCc3cccc(C#N)c3)c(CN[C@@H](Cn3ncnn3)C(=O)O)cc2Cl)cccc1-c1ccc2c(c1)OCCO2` [Example 1227, (S)-2-((5-chloro-2-((3-cyanobenzyl)oxy)-4-((3-(2,3-dihydrobenzo[b][1,4]dioxin-6-yl)-2-methylbenzyl)oxy)benzyl)amino)-3-(2H-tetrazol-2-yl)propanoic acid], the IC50 was 100 to 20000 nM. On to `Cc1cc(CN[C@@H](CO)C(=O)O)c(OCc2ccc(F)c(C#N)c2)cc1OCc1cccc(-c2ccc3c(c2)OCCO3)c1C` [Example 1274, (S)-2-((2-((3-cyano-4-fluorobenzyl)oxy)-4-((3-(2,3-dihydrobenzo[b][1,4]dioxin-6-yl)-2-methylbenzyl)oxy)-5-methylbenzyl)amino)-3-hydroxypropanoic acid], for which the IC50 fell in the range of 0.6 to 10 nM. As for `CC(=O)NCCNCc1cc(Cl)c(OCc2cccc(-c3ccc4c(c3)OCCO4)c2C)cc1OCc1cccc(C#N)c1` [Example 1247, N-(2-((5-chloro-2-((3-cyanobenzyl)oxy)-4-((3-(2,3-dihydrobenzo[b][1,4]dioxin-6-yl)-2-methylbenzyl)oxy)benzyl)amino)ethyl)acetamide], the figure is 0.6 to 10 nM; as for `N#Cc1cccc(COc2cc(OCc3cccc(-c4ccc5c(c4)OCCO5)c3Cl)ccc2CN[C@H](CO)C(=O)O)c1` [Example 1146, (R)-2-(4-(2-chloro-3-(2,3-dihydrobenzo[b][1,4]dioxin-6-yl)benzyloxy)-2-(3-cyanobenzyloxy)benzylamino)-3-hydroxypropanoic acid], 0.6 to 10 nM.

Usually IC50 stands for the midpoint of a concentration-inhibition curve.
